Measured values reported in the METLIN SMRT retention time set (Domingo-Almenara et al. 2019).

Test: gradient 5% acetonitrile 3 min, to 50% in 2 min, to 85% in 15 min, held 3 min, 100 µL/min
Conditions: column: Zorbax Extend-C18 2.1 x 50 mm; eluents: water / acetonitrile, 0.1% formic acid
Summary of the method: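 Retention times come from adduct peaks that were picked computationally and then checked by hand. The standards, pure and pooled in mixtures of ~100 molecules, were run on a Zorbax Extend-C18 column (2.1 × 50 mm, 1.8 μm) at 100 μL/min with water and acetonitrile, each with 0.1% formic acid. Detection was by quadrupole time-of-flight mass spectrometry in positive and negative ionization mode, with a dead volume of 40 μL and a dwell volume of 900 μL.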

Row | SMILES | RP-LC retention time
1 | O=C(NCCCN1CCCC1)c1ccc2ccnc(N3CCN(c4ccc(Cl)cc4)CC3)c2c1 | 639 s
2 | CN(C)c1ncnc2c1ncn2-c1ccccc1 | 714 s
3 | O=S(=O)(c1cccc(-c2cn3ccccc3n2)c1)N1CCCC1 | 607 s
4 | CC(C)NC(=O)Cn1cc(-c2ccccc2)c2ncnc(N3CCOCC3)c21 | 659 s
5 | CC(C)(CO)NCc1ccc(-c2cccc(C(F)(F)F)c2)o1 | 660 s
6 | COCC(=O)Nc1cnc(-c2cccnc2)nc1 | 554 s
7 | COCc1noc([C@@H]2CC(F)(F)CN2C(=O)c2cncn2C)n1 | 584 s
8 | Cc1ccc2c(c1)N(S(C)(=O)=O)CCC(C(=O)NC(C)c1ccccc1)O2 (stereo unspecified) | 900 s
9 | COc1ccccc1-c1noc(C2CCCN2C(=O)Nc2cccc(Br)c2)n1 (stereo unspecified) | 944 s
10 | COc1ccc2c(c1)C1(CCN(C(=O)c3ccccc3Cl)C1)C(=O)N2 (stereo unspecified) | 708 s
11 | CCCC(=O)Nc1ccc2c(c1)CN(C(=O)c1ccc(C#N)cc1)C(C(=O)N(C)C)C2 (stereo unspecified) | 681 s
12 | O=C(Cc1nnc(-c2ccc3ncccc3c2)o1)NCCc1ccccc1 | 702 s
13 | CN1C(=O)c2cc(S(=O)(=O)NCc3ccccc3Cl)ccc2Oc2cccnc21 | 903 s
14 | O=C(CCc1ccc2[nH]ccc2c1)N1CCN(c2ccccc2)CC1 | 856 s
15 | Cc1ccc(Cl)cc1NC(=O)N1CCC(n2cnnc2C2CC2)C1 (stereo unspecified) | 653 s
16 | CS(=O)(=O)N1CCCc2cc(C(=O)NCCCN3CCOCC3)ccc21 | 585 s
17 | Cc1ccc(C)c(-c2coc(-c3ccc(NC(=O)c4ccc(Br)o4)cc3)n2)c1 | 1310 s
18 | CCc1ccc(S(=O)(=O)N2CCC3(CC2)NCCN=C3NCc2ccccc2C)cc1 | 791 s

Row | SMILES | RP-LC retention time
19 | COc1ccc(-c2noc(CN3C(=O)COc4ccccc43)n2)cc1 | 953 s
20 | COc1ccc(-c2nnc(-c3ccccc3)o2)cc1S(=O)(=O)N1CCSCC1 | 955 s
21 | CC(Oc1ccc(=O)n(-c2ccc(F)cc2)n1)C(=O)Nc1ccccc1F (stereo unspecified) | 772 s
22 | CN(C)C(=O)c1ccc2c(c1)nc(CN1CCN(C(=O)NC3CCCCC3)CC1)n2C | 565 s
23 | CC(C)CNC(=O)c1cc2c(s1)N(CC1CC1)CCCC2 | 1040 s
24 | CCn1cc(-c2nc(CC(=O)Nc3ccccc3C)cs2)c2cccnc21 | 980 s
25 | CCOC(=O)c1nc(Nc2ccc(CC)cc2)c2ccccc2n1 | 932 s
26 | Cc1cccc(-c2nc(-c3nnn(-c4ccccc4)c3C)no2)c1 | 1140 s
27 | Cc1ccc(NC(=O)N2C[C@@H](F)C[C@H]2C(=O)N2CCc3ccccc3C2)cc1C | 817 s
28 | c1ccc(-c2noc(-c3nc(-c4ccccn4)no3)n2)cc1 | 958 s
29 | CC(C)NC(=O)N(CC(=O)N1CCc2sccc2C1COc1ccccc1)CC1CC1 (stereo unspecified) | 943 s
30 | COc1ccc(CCc2nc3nccc(-c4ccccn4)n3n2)cc1 | 837 s
31 | Cc1cc(C)n(CCC(=O)N2CC(Oc3cccc(-c4nc(-c5ccccc5)no4)c3)C2)n1 | 1000 s
32 | O=C(Cn1c(=O)c(CCC(=O)NC2CCCC2)nc2ccccc21)Nc1ccc(F)c(F)c1 | 825 s
33 | Cc1ccnc(NC(=O)C2CCN(S(=O)(=O)c3ccc4c(c3)sc(=O)n4C(C)C)CC2)c1 | 794 s
34 | COc1cc2c(cc1Oc1ccc(OC)c3c1CC1c4c(cc(OC)c(OC)c4-3)CCN1C)CC1c3c(cc(OC)c(OC)c3-2)CCN1C (stereo unspecified) | 616 s
35 | CC(C)NC(=O)C1CCN(c2nc3ccc(-c4ccc(F)cc4)nc3s2)CC1 | 752 s
36 | COc1ccc(NC(=O)Cn2c(=O)c(CCC(=O)NC3CCCCC3)nc3ccccc32)c(OC)c1 | 839 s
